Measurements as given in ChEMBL document CHEMBL4406807, “Discovery of 3,4,6-Trisubstituted Piperidine Derivatives as Orally Active, Low hERG Blocking Akt Inhibitors via Conformational Restriction and Structure-Based Design” (J Med Chem, 2019).
Each block holds one compound with its values, some of them ahead of it.

Legend:
hERG (KCNH2) = hERG (KCNH2) (Homo sapiens, UniProt Q12809); test: Inhibition of ERG in human HEK293 cells at 3 uM at -80 mV holding potential by whole-cell patch clamp assay relative to control; assay type: cell-based; settings: HEK293 cells expressing ERG
LNCaP = test: Antiproliferative activity against human LNCAP cells; assay type: functional, cell-based
OVCAR-8 = test: Antiproliferative activity against human OVCAR8 cells; assay type: functional, cell-based
HCT-116 = test: cells; settings: Homo sapiens, HCT-116, 72 h
[1] = target: RAC-alpha serine/threonine-protein kinase (Homo sapiens, UniProt P31749)
Description: Inhibition of human Akt1 expressed in Escherichia coli using STK Substrate 2-biotin as substrate incubated for 1 hr by HTRF assay

[2] = target: T1, Serine/threonine-protein kinase Sgk1 (Homo sapiens, UniProt O00141); test: Inhibition of human SGK by mobility shift assay
T1 sequence (O00141 whole entry): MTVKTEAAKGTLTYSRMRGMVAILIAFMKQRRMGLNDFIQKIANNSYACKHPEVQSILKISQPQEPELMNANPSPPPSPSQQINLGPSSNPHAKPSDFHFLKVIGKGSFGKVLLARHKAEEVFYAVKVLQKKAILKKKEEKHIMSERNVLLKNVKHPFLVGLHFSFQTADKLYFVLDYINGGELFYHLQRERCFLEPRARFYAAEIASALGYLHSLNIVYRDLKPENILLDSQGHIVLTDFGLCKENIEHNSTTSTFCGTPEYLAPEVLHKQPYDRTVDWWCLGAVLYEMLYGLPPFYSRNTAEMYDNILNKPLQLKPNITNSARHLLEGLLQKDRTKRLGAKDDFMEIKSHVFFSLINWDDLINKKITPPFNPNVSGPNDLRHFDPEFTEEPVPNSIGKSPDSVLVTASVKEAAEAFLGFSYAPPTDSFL

SK-OV-3 = test: Antitumor activity against human SKOV3 cells xenografted in BALB/c nude mouse assessed as tumor growth inhibition at 60 mg/kg, po administered once daily for 21 days relative to control; assay type: functional; settings: SK-OV-3, po, 504 h, read-out: TGI
[3] = target: Ribosomal protein S6 kinase alpha-1 (Homo sapiens, UniProt Q15418); test: Inhibition of RSK1 (unknown origin) by mobility shift assay
[4] = target: Ribosomal protein S6 kinase beta-1 (Homo sapiens, UniProt P23443); test: Inhibition of human P70S6K by mobility shift assay
[5] = Inhibition of recombinant His-tagged human PKA expressed in Escherichia coli using Ser/Thr 01 as substrate after 1 hr by Z-lyte assay
[6] = Toxicity in BALB/c nude mouse xenografted with human SKOV3 cells assessed as effect on body weight at 60 to 80 mg/kg, po administered once daily for 21 days; assay type: organism-based; settings: in vivo, 504 h
[7] = Toxicity in BALB/c nude mouse xenografted with human SKOV3 cells assessed as reduction in mouse survival at 60 to 80 mg/kg, po administered once daily for 21 days; assay type: organism-based; settings: in vivo, 504 h
[8] = Microsomal stability in dog liver microsomes assessed as compound remaining at 100 ug/ml in presence of NADPH measured at 1.5 hrs by LC/MS analysis; assay type: ADME, Canis lupus familiaris, Microsome; settings: read-out: Stability
[9] = AUC (0 to t) in Sprague-Dawley rat at 25 mg/kg, ig measured up to 24 hrs by LC-MS/MS analysis; assay type: ADME, organism-based; design: time < 24 hr, dose 25 mg/kg, route […]; settings: in vivo, po
[10] = Stability in human plasma at 100 ug/ml after 1 hr by LC/MS analysis; assay type: ADME, cell-free; settings: read-out: Stability
[11] = Microsomal stability in rat liver microsomes assessed as compound remaining at 100 ug/ml in presence of NADPH measured at 1.5 hrs by LC/MS analysis; assay type: ADME, Microsome; settings: read-out: Stability
[12] = Clearance in Sprague-Dawley rat at 25 mg/kg, ig measured up to 24 hrs by LC-MS/MS analysis; assay type: ADME, organism-based; settings: in vivo, po
[13] = Cmax in Sprague-Dawley rat at 25 mg/kg, ig measured up to 24 hrs by LC-MS/MS analysis; assay type: ADME, organism-based; design: dose 25 mg/kg, route […]; settings: in vivo, po
[14] = Microsomal stability in mouse liver microsomes assessed as compound remaining at 100 ug/ml in presence of NADPH measured at 1.5 hrs by LC/MS analysis; assay type: ADME, Microsome; settings: read-out: Stability
[15] = target: Rho-associated protein kinase 1 (Homo sapiens, UniProt Q13464); test: Inhibition of human ROCK1 by mobile shift assay
Protein kinase C (PKC) = test: Inhibition of PKC (unknown origin); assay type: protein assay, Homo sapiens
[16] = MRT (0 to t) in Sprague-Dawley rat at 25 mg/kg, ig measured up to 24 hrs by LC-MS/MS analysis; assay type: ADME, organism-based; settings: in vivo, po
[17] = AUC (0 to infinity) in Sprague-Dawley rat at 25 mg/kg, ig measured up to 24 hrs by LC-MS/MS analysis; assay type: ADME, organism-based; design: dose 25 mg/kg, route […], time infinity; settings: in vivo, po
[18] = Half-life in Sprague-Dawley rat at 25 mg/kg, ig measured up to 24 hrs by LC-MS/MS analysis; assay type: ADME, organism-based; settings: in vivo, po
[19] = Stability in mouse plasma at 100 ug/ml after 1 hr by LC/MS analysis; assay type: ADME, cell-free; settings: read-out: Stability
[20] = target: RAC-gamma serine/threonine-protein kinase (Homo sapiens, UniProt Q9Y243); test: Inhibition of Akt3 (unknown origin) by mobile shift assay
[21] = Tmax in Sprague-Dawley rat at 25 mg/kg, ig measured up to 24 hrs by LC-MS/MS analysis; assay type: ADME, organism-based; settings: in vivo, po
[22] = target: RAC-beta serine/threonine-protein kinase (Homo sapiens, UniProt P31751); test: Inhibition of human Akt2 by mobile shift assay
[23] = Volume of distribution in Sprague-Dawley rat at 25 mg/kg, ig measured up to 24 hrs by LC-MS/MS analysis; assay type: ADME, organism-based; settings: in vivo, po
[24] = Microsomal stability in monkey liver microsomes assessed as compound remaining at 100 ug/ml in presence of NADPH measured at 1.5 hrs by LC/MS analysis; assay type: ADME, Macaca mulatta, Microsome; settings: rhesus monkey, read-out: Stability
[25] = MRT (0 to infinity) in Sprague-Dawley rat at 25 mg/kg, ig measured up to 24 hrs by LC-MS/MS analysis; assay type: ADME, organism-based; settings: in vivo, po

Chain of RAC-alpha serine/threonine-protein kinase (P31749 whole entry): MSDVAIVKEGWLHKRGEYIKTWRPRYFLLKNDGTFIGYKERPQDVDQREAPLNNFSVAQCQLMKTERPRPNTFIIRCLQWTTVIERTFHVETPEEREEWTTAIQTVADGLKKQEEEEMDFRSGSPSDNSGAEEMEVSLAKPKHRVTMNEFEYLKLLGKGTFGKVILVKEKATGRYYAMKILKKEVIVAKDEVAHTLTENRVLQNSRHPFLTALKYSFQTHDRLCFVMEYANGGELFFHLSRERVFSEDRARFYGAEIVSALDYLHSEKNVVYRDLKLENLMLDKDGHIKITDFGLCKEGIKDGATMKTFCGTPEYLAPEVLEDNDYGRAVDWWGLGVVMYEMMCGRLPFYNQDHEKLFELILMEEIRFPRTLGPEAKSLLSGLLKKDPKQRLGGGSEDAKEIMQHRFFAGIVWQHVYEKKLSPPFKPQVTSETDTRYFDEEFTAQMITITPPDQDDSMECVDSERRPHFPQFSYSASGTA
Chain of hERG (KCNH2) (Q12809 whole entry): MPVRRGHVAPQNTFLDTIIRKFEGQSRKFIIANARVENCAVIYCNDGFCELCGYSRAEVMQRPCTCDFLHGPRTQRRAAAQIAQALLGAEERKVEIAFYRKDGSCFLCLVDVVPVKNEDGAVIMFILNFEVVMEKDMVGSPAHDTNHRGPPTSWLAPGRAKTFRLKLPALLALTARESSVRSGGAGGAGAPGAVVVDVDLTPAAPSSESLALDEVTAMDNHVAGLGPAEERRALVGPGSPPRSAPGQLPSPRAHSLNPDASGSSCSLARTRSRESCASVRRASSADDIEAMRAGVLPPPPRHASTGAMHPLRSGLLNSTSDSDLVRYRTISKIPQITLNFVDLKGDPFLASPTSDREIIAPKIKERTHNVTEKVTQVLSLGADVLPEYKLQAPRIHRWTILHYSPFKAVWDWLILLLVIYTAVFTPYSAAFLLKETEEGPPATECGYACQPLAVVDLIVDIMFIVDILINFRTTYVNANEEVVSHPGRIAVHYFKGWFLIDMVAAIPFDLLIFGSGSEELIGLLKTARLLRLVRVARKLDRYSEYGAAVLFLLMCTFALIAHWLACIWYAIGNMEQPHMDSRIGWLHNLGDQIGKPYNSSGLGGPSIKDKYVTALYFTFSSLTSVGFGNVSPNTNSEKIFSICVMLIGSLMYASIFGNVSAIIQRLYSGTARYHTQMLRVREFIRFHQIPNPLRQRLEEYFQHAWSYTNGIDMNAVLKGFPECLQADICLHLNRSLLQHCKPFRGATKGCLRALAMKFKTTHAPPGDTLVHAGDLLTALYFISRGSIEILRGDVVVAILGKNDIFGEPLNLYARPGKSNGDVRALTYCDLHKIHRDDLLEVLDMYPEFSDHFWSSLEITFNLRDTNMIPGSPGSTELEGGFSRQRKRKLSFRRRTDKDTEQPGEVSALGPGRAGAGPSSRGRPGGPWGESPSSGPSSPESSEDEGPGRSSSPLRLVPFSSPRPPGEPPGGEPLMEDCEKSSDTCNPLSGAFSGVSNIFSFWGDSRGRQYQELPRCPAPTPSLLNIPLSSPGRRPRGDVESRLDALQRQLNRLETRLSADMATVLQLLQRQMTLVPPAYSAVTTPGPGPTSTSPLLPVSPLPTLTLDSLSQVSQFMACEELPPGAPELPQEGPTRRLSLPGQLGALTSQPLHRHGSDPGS
Chain of Ribosomal protein S6 kinase alpha-1 (Q15418 whole entry): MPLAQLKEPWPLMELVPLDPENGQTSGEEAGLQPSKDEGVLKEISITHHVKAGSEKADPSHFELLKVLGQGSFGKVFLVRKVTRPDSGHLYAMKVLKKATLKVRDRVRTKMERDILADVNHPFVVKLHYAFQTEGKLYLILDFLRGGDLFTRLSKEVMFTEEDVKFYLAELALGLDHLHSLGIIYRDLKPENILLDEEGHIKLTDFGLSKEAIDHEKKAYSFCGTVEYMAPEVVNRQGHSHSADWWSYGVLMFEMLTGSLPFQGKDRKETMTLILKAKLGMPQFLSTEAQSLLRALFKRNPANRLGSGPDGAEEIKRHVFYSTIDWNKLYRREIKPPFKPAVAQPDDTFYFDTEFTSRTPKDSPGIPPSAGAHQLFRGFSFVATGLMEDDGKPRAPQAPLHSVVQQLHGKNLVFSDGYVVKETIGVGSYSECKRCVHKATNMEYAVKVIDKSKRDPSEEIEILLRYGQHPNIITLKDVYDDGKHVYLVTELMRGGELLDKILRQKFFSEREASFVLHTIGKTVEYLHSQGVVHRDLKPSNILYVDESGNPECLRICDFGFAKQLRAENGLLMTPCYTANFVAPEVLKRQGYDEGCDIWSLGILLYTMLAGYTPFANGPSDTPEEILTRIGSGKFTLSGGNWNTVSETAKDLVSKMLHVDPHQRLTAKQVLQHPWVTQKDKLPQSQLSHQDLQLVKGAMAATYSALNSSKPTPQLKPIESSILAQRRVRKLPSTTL
Chain of Ribosomal protein S6 kinase beta-1 (P23443 whole entry): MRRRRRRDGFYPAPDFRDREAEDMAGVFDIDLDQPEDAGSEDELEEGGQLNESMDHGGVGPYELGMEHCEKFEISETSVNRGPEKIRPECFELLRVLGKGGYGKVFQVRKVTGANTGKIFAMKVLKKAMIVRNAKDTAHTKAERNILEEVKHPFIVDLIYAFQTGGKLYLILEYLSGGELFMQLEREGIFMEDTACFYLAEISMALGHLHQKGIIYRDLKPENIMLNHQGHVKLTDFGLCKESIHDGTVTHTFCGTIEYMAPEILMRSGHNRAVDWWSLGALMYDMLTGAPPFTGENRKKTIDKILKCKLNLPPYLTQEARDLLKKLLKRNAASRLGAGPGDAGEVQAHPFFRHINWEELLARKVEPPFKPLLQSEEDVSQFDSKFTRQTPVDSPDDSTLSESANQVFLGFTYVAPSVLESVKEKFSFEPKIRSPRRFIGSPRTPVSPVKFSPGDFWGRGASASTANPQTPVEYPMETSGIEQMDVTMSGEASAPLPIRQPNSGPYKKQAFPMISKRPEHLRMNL
Chain of Rho-associated protein kinase 1 (Q13464 whole entry): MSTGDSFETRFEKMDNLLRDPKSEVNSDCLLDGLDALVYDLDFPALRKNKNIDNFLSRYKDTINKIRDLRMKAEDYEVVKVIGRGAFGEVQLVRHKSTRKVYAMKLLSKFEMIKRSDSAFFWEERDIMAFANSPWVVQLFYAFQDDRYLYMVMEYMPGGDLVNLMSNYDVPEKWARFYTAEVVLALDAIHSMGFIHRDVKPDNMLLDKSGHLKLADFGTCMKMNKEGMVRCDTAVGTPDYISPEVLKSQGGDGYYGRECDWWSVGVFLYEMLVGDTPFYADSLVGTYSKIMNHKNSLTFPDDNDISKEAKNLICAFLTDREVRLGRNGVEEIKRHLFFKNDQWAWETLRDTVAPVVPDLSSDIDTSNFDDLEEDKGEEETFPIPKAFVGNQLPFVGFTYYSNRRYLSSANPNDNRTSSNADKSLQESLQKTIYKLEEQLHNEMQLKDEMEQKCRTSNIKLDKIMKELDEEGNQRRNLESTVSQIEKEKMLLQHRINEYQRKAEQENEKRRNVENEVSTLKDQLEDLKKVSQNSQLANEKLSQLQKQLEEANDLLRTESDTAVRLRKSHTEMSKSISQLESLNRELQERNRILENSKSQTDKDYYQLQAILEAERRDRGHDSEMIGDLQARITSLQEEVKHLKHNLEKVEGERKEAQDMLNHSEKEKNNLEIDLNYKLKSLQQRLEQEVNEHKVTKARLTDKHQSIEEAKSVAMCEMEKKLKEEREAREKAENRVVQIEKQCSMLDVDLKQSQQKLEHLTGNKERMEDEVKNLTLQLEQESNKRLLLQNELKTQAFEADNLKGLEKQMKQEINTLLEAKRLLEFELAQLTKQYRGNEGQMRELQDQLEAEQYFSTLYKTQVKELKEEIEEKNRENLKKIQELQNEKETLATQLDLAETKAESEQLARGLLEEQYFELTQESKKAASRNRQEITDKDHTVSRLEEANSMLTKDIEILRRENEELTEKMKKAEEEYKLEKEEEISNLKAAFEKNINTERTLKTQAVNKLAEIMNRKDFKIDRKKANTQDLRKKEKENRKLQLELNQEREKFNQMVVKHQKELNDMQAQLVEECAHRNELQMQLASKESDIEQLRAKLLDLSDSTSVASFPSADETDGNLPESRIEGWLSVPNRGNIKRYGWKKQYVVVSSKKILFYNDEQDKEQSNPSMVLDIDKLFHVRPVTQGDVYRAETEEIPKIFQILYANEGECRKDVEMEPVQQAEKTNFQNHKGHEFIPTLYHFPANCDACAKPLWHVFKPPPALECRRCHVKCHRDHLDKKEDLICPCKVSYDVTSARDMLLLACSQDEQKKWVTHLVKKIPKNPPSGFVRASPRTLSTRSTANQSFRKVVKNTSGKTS
Chain of RAC-beta serine/threonine-protein kinase (P31751 whole entry): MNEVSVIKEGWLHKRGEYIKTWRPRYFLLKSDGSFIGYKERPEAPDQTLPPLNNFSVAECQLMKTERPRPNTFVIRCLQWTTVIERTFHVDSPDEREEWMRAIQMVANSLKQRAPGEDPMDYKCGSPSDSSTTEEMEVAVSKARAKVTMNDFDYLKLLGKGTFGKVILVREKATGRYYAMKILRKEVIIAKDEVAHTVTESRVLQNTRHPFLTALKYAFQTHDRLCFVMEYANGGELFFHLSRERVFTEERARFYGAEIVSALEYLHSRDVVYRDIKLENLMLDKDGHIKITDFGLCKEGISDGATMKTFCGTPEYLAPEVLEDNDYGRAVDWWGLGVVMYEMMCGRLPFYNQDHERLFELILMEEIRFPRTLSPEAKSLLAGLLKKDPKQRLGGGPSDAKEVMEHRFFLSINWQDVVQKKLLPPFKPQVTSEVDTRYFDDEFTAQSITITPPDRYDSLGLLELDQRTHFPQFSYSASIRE

IC50 (LNCaP): 190 nM | IC50 (OVCAR-8): 580 nM | IC50 (HCT-116): 740 nM | IC50 [1]: 3.95 nM
Compound: Cn1ncc(Cl)c1-c1cc(C(=O)N[C@@H]2CN[C@H](CC(=O)NC3CC3)C[C@H]2c2ccc(Cl)c(Cl)c2)oc1Cl
inhibition at 3 µM (hERG (KCNH2)): 70.4%

IC50 (LNCaP): 40 nM | IC50 (OVCAR-8): 1450 nM | IC50 (HCT-116): 670 nM | IC50 [1]: 1.41 nM
Compound: Cn1ncc(Cl)c1-c1cc(C(=O)N[C@@H]2CN[C@H](CC(=O)NCCO)C[C@H]2c2ccc(Cl)c(Cl)c2)oc1Cl
inhibition at 3 µM (hERG (KCNH2)): 6.7%

IC50 (LNCaP): 40 nM | IC50 (OVCAR-8): 1130 nM | IC50 (HCT-116): 450 nM | IC50 [1]: 2.64 nM
Compound: CNC(=O)C[C@@H]1C[C@@H](c2ccc(Cl)c(Cl)c2)[C@H](NC(=O)c2cc(-c3c(Cl)cnn3C)c(Cl)o2)CN1
inhibition at 3 µM (hERG (KCNH2)): 45.9%

IC50 (LNCaP): 640 nM | IC50 (OVCAR-8): 5120 nM | IC50 (HCT-116): 4020 nM | IC50 [1]: 1.94 nM
Compound: Cn1ncc(Cl)c1-c1cc(C(=O)N[C@@H]2CN[C@H](CC(=O)O)C[C@H]2c2ccc(Cl)c(Cl)c2)oc1Cl
inhibition at 3 µM (hERG (KCNH2)): 9.1%

IC50 (LNCaP): 160 nM | IC50 (OVCAR-8): 610 nM | IC50 (HCT-116): 340 nM | IC50 [1]: 2.74 nM
Compound: Cn1ncc(Cl)c1-c1cc(C(=O)N[C@@H]2CN[C@H](CCO)C[C@H]2c2ccc(Cl)c(Cl)c2)oc1Cl
inhibition at 3 µM (hERG (KCNH2)): 51.8%

IC50 (LNCaP): 160 nM | IC50 (OVCAR-8): 1000 nM | IC50 (HCT-116): 650 nM | IC50 [1]: 3.24 nM
Compound: Cn1ncc(Cl)c1-c1cc(C(=O)N[C@@H]2CN[C@H](CC(N)=O)C[C@H]2c2ccc(Cl)c(Cl)c2)oc1Cl
inhibition at 3 µM (hERG (KCNH2)): 15.7%

Second part, the compound before the results:

Compound: Cn1ncc(Cl)c1-c1cc(C(=O)N[C@@H]2CN[C@H](CCN3CCCCC3)C[C@H]2c2ccc(Cl)c(Cl)c2)oc1Cl
inhibition at 3 µM (hERG (KCNH2)): 93.1% | IC50 (LNCaP): 1780 nM | IC50 (OVCAR-8): 1660 nM | IC50 (HCT-116): 1020 nM | IC50 [1]: 5.65 nM

Compound: Cn1ncc(Cl)c1-c1cc(C(=O)N[C@H](CN)Cc2ccc(F)c(F)c2)oc1Cl [UPROSERTIB]
IC50 [2]: 211 nM | inhibition in vivo at 60 mg/kg (SK-OV-3): 63.3% | IC50 [3]: 339 nM | IC50 [4]: 60 nM | IC50 [5]: 0.6 nM | inhibition at 3 µM (hERG (KCNH2)): 50 to 50.2% | IC50 (LNCaP): 70 nM | Activity [6]: Non-Toxic | IC50 (OVCAR-8): 240 to 1320 nM | IC50 (HCT-116): 720 to 1270 nM | Activity [7]: Non-Toxic

Compound: Cn1ncc(Cl)c1-c1cc(C(=O)N[C@@H]2CN[C@H](CCCO)C[C@H]2c2ccc(Cl)c(Cl)c2)oc1Cl
inhibition at 3 µM (hERG (KCNH2)): 72% | IC50 (LNCaP): 210 nM | IC50 (OVCAR-8): 600 nM | IC50 (HCT-116): 510 nM | IC50 [1]: 2.56 nM

Compound: Cn1ncc(Cl)c1-c1cc(C(=O)N[C@@H]2CN[C@H](CC(O)CO)C[C@H]2c2ccc(F)c(F)c2)oc1Cl (some centres undefined)
inhibition at 3 µM (hERG (KCNH2)): 4.7% | IC50 (LNCaP): 100 nM | IC50 (OVCAR-8): 690 nM | IC50 (HCT-116): 800 nM | IC50 [1]: 3.31 nM

Compound: Cn1ncc(Cl)c1-c1cc(C(=O)N[C@@H]2CN[C@H](CCn3cncn3)C[C@H]2c2ccc(Cl)c(Cl)c2)oc1Cl
inhibition at 3 µM (hERG (KCNH2)): 50.1% | IC50 (LNCaP): 60 nM | IC50 (OVCAR-8): 1560 nM | IC50 (HCT-116): 560 nM | IC50 [1]: 4.47 nM

Compound: Cn1ncc(Cl)c1-c1cc(C(=O)N[C@@H]2CN[C@H](CCN3CCC(O)CC3)C[C@H]2c2ccc(Cl)c(Cl)c2)oc1Cl
inhibition at 3 µM (hERG (KCNH2)): 12% | IC50 (LNCaP): 1140 nM | IC50 (OVCAR-8): 15900 nM | IC50 (HCT-116): 13700 nM | IC50 [1]: 5.99 nM

Compound: Cn1ncc(Cl)c1-c1cc(C(=O)N[C@@H]2CN[C@H](CCO)C[C@H]2c2ccc(F)c(F)c2)oc1Cl
remaining at 1.5 h, 100 ug/ml [8]: 96% | IC50 [2]: 102 nM | AUC(0-t) at 24 h [9]: 1010 ng·h/mL | IC50 [3]: 32 nM | remaining at 1 h, 100 ug/ml [10]: > 99% | remaining at 1.5 h, 100 ug/ml [11]: 69% | IC50 [4]: 7.1 nM | IC50 [5]: 0.2 nM | CL/F [12]: 433 mL/min/kg | Cmax [13]: 145 ng/mL | remaining at 1.5 h, 100 ug/ml [14]: > 99% | IC50 [15]: 38 nM | IC50 (Protein kinase C (PKC)): 16 nM | inhibition at 3 µM (hERG (KCNH2)): 9% | MRT last at 24 h [16]: 5.1 h | AUC(0-inf) [17]: 1660 ng·h/mL | half-life [18]: 12.7 h | remaining at 1 h, 100 ug/ml [19]: > 99% | IC50 (LNCaP): 60 nM | IC50 (OVCAR-8): 460 nM | IC50 [20]: 0.12 nM | Tmax [21]: 1.1 h | IC50 (HCT-116): 360 nM | IC50 [22]: 0.54 nM | Vd [23]: 300.9 L/kg | remaining at 1.5 h, 100 ug/ml [24]: 18% | IC50 [1]: 0.98 nM | MRT inf [25]: 12.3 h

Compound: Cn1ncc(Cl)c1-c1cc(C(=O)N[C@@H]2CN[C@H](CCN3CCOCC3)C[C@H]2c2ccc(Cl)c(Cl)c2)oc1Cl
inhibition at 3 µM (hERG (KCNH2)): 82.3% | IC50 (LNCaP): 410 nM | IC50 (OVCAR-8): 1760 nM | IC50 (HCT-116): 1560 nM | IC50 [1]: 8.78 nM

Compound: Cn1ncc(Cl)c1-c1cc(C(=O)N[C@@H]2CN[C@H](CCNS(C)(=O)=O)C[C@H]2c2ccc(F)c(F)c2)oc1Cl
inhibition at 3 µM (hERG (KCNH2)): 8% | IC50 (LNCaP): 50 nM | IC50 (OVCAR-8): 1530 nM | IC50 (HCT-116): 920 nM | IC50 [1]: 3.29 nM
